Reference: article PMC12366361, “Biochemical properties of glycerol kinase from the hypersaline-adapted archaeon Haloferax volcanii” (Applied and Environmental Microbiology, 2025)
One block for each molecule: values may come before it.

Assays:
[1] = molecular target: T1, glycerol kinase (GK, His-GK) (Haloferax volcanii, UniProt D4GYI5); assay: coupled enzyme kinetics of purified His-GK (Hill fit, n = […]); supported by DSF shift ([…] to […]°C) and SEC dimer-to-tetramer shift; assay type: biochemical
T1 construct: gene glpK; N-terminal His-tagged GK (His-GK)
T1 sequence (D4GYI5 1-510): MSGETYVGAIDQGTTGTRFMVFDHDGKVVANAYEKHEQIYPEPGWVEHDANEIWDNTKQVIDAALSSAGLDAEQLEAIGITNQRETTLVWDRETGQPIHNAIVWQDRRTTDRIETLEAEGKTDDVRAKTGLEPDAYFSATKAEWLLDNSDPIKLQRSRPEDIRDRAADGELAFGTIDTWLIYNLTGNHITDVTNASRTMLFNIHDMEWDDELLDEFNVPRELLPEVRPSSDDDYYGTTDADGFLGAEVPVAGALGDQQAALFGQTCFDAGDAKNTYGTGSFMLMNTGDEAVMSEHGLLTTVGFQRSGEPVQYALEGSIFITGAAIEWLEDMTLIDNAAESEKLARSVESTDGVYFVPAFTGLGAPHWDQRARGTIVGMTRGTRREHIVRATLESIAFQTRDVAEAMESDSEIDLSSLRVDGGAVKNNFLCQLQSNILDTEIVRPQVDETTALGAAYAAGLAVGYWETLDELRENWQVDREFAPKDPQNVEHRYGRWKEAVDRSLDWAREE

[2] = molecular target: T1, glycerol kinase (GK, His-GK); assay: coupled enzyme kinetics of purified His-GK (Hill fit, n = […]); further DSF stabilization together with glycerol ([…]°C); assay type: biochemical
[3] = molecular target: the molecule itself; assay: SEC; Superdex 200 Increase 10/300 GL, 50 mM HEPES pH 7.5, 2 M NaCl, 1 mM DTT, without glycerol; 0.3 mL/min; Ni2+-NTA-purified His-GK dialysed against the same buffer; mass from Kav against standards
[4] = molecular target: the molecule itself; assay: SEC; Superdex 200 Increase 10/300 GL, 50 mM HEPES pH 7.5, 2 M NaCl, 1 mM DTT, with 10% (vol/vol) glycerol; 0.3 mL/min; Ni2+-NTA-purified His-GK dialysed against the same buffer; the isolated tetramer was also kept overnight at 4°C and run again; mass from Kav against standards

Kd [1]: 1.44 ± 0.16 mM
Molecule: OCC(O)CO [glycerol]

Molecule: Nc1ncnc2c1ncn2[C@@H]1O[C@H](COP(=O)(O)OP(=O)(O)OP(=O)(O)O)[C@@H](O)[C@H]1O [ATP]
Kd [2]: 1.6 ± 0.08 mM

B1: Haloferax volcanii glycerol kinase fused to an N-terminal polyhistidine tag (His-GK) (enzyme, UniProt D4GYI5 1-510, looked up)
chain: T1 sequence (D4GYI5 1-510)
notes: calculated His-GK monomer 56.7 kDa; Found by SEC as a homodimer (no glycerol) or as a homodimer plus a homotetramer (10% glycerol); also called GlpK; H. volcanii GK; source: H. volcanii H1207-pJAM4351 grown in GlyMM, purified (Ni2+-NTA resin, then SEC); not shown: His6, N-terminal, kept
stoichiometry N [3]: 2
stoichiometry N [4]: 4
